Assays:
[1] = tested on: transfected CHO cells expressing recombinant human monoclonal antibody (cell line 1); assay: 24-deep well culture, cell line 1: VCD, viability, titer, qP; type: cell-based, Chinese hamster; conditions: for Titer / VCD / Viability / qP: Cell Line 1; for effect on viability / growth arrest: summary of Table 2
Experimental: Transfected CHO cells expressing a recombinant human monoclonal antibody (mAb) are cultured in 24-deep well plates with seeding density at 1×10^7/mL for five days. At certain time periods, samples of the cultures are taken and evaluated for viable cell density (VCD; expressed in 10^6 cells/mL); percent viability (as determined by trypan blue exclusion); titer of recombinant protein (expressed in grams of protein per liter of culture, or g/L, as determined by Protein A affinity HPLC); qP, or specific productivity (expressed in picograms of recombinant protein per cell per day, or pg/c/d), the presence or absence of high molecular weight substances (usually an indicator of protein aggregation; expressed as % of the total protein); and the relative percentage of Mannose 5, a major intermediate glyco-form that attaches to N297 of the mAb. N-linked glycosylation has an impact on the tertiary structure of the antibody and may affect Fc mediated antibody effector functions. The majority of the human Fc glycans are complex biantennary structures with galactose as the prevalent terminal sugar. Immature glyco-forms, such as high-mannose glycol-forms (Man5-9), are of concern due to potential higher plasma clearance rate (as compared to the clearance rate of complex glycan linked mAbs).
Compounds are further evaluated essentially as described in Example 2 herein. Briefly, transfected CHO cells expressing recombinant human monoclonal antibody (mAb; two different cell lines expressing two different mAb, referred to as cell line 1 and cell line 2) are cultured in 24-deep well plates in the presence or absence of the compounds. At specified time points, samples of the cultures are taken and evaluated for viable cell density (VCD; expressed in 10^6 cells/mL); percent viability (as determined by any method known in the art); titer of recombinant protein (expressed in grams of protein per liter of culture, or g/L, as determined by Protein A affinity HPLC); qP, or specific productivity (expressed in picograms of recombinant protein per cell per day, or pg/c/d). Additional parameters measure include the presence or absence of high molecular weight substances (usually an indicator of protein aggregation; expressed as % of the total protein); and the relative percentage of Mannose 5. For comparison purposes, Compounds A and B, which had been previously tested, were tested again.

CDK4/Cyclin D1 = molecular target: T1, CDK4/Cyclin D1 (Homo sapiens, UniProt P11802); assay: CDK4 filtration kinase assay; type: biochemical; conditions: CDK4/Cyclin D1, Rb fragment substrate, [33P]-ATP
T1 construct: purchased Cell Signaling Technology
T1 sequence (P11802 whole entry, species assumed, the tested form may be a part): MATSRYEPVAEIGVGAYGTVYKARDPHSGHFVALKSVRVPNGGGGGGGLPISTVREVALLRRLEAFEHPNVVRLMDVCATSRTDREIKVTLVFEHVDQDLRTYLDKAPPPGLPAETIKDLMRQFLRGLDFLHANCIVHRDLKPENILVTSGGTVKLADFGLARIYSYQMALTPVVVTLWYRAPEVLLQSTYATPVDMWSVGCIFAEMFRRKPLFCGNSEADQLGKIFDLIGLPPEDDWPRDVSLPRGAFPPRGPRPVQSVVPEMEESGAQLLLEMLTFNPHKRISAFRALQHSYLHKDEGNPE
T1 sequence (P24385 whole entry partner, species assumed, the tested form may be a part): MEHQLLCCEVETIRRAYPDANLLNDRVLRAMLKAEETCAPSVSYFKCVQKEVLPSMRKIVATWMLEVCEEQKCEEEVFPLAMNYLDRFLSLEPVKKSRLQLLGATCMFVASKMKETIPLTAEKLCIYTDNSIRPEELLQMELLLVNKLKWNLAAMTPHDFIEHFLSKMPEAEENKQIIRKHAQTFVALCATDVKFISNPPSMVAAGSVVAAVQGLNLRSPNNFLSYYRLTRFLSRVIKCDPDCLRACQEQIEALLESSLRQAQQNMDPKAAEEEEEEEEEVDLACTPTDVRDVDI
Experimental: The CDK4 inhibitory activity of the cell cycle inhibitors was determined with a filtration kinase assay. The compounds, kinase and substrate diluted in the kinase buffer (20 mM Tris, pH7.4, 50 mM NaCl, 1 mM DTT, 0.1% BSA) were sequentially added to a 96-well Multiscreen HTS filtration plate (Millipore). The final 100 μL reaction mixture in each well contained 0.3 μg of CDK4/Cyclin D1 (Cell Signaling Technology), 1 μg of Rb fragment (aa773-928, Millipore) for the CDK4 assay and 1 μCi of [^33P]-ATP. The mixture was incubated at room temperature for 1 hour. The proteins in the reaction were then precipitated and washed with cold TCA solution using an aspiration/filtration vacuum system. The plates were dried at room temperature, and the retained radioactivity was measured by scintillation counting. IC50 values of the compounds in the above assays were determined by non-linear regression analysis using Prism (GraphPad Software).

Colo205 = assay: [14C]-thymidine incorporation cell proliferation inhibition assay; type: cell-based; conditions: Homo sapiens, COLO 205, 72 hour incubation
Experimental: The cell proliferation inhibition potency of the cell cycle inhibitors was determined by using a [^14C]-thymidine incorporation assay. Exponentially growing cells (Colo205) were seeded in a 96-well Cytostar T plate (GE Healthcare Biosciences) at a density of 5×10^3 cells/well and incubated overnight. Serially diluted compounds and 0.1 μCi of [^14C]-thymidine (GE Healthcare Biosciences) were added to each well on the following day. After 72 hour incubation, isotope incorporation was determined with a β plate counter (Wallac). IC50 values of the compounds in the above assays were determined by non-linear regression analysis using Prism (GraphPad Software).

SMILES: CC1CCC(n2c3cnccc3c3cnc(Nc4ccc(N5CCC6(CC5)CCS(=O)(=O)C6)nn4)nc32)CC1 (stereo not drawn) [Compound E, 8-(6-((9-(4-methylcyclohexyl)-9H-pyrido[4′,3′:4,5]pyrrolo[2,3-d]pyrimidin-2-yl)amino)pyridazin-3-yl)-2-thia-8-azaspiro[4.5]decane 2,2-dioxide]
- Titer ([1]; 5 microM, D 1): 0.47 g/L
- VCD ([1]; 5 microM, D 1): 10.31 e6/mL
- Viability ([1]; 5 microM, D 1): 95.94%
- qP ([1]; 5 microM, D 1): 45.61 pg/c/d
- Titer ([1]; 5 microM, D 2): 0.67 g/L
- VCD ([1]; 5 microM, D 2): 9.37 e6/mL
- Viability ([1]; 5 microM, D 2): 85.43%
- qP ([1]; 5 microM, D 2): 71.53 pg/c/d
- Titer ([1]; 5 microM, D 3): 0.85 g/L
- VCD ([1]; 5 microM, D 3): 10.05 e6/mL
- Viability ([1]; 5 microM, D 3): 79.09%
- qP ([1]; 5 microM, D 3): 84.92 pg/c/d
- Titer ([1]; 5 microM, D 4): 0.98 g/L
- VCD ([1]; 5 microM, D 4): 10.39 e6/mL
- Viability ([1]; 5 microM, D 4): 72.71%
- qP ([1]; 5 microM, D 4): 94.68 pg/c/d
- Titer ([1]; 10 microM, D 1): 0.48 g/L
- VCD ([1]; 10 microM, D 1): 9.99 e6/mL
- Viability ([1]; 10 microM, D 1): 94.71%
- qP ([1]; 10 microM, D 1): 47.72 pg/c/d
- Titer ([1]; 10 microM, D 2): 0.66 g/L
- VCD ([1]; 10 microM, D 2): 9.29 e6/mL
- Viability ([1]; 10 microM, D 2): 83.23%
- qP ([1]; 10 microM, D 2): 71.04 pg/c/d
- Titer ([1]; 10 microM, D 3): 0.83 g/L
- VCD ([1]; 10 microM, D 3): 9.55 e6/mL
- Viability ([1]; 10 microM, D 3): 76.37%
- qP ([1]; 10 microM, D 3): 87.30 pg/c/d
- Titer ([1]; 10 microM, D 4): 0.96 g/L
- VCD ([1]; 10 microM, D 4): 10.29 e6/mL
- Viability ([1]; 10 microM, D 4): 72.16%
- qP ([1]; 10 microM, D 4): 92.97 pg/c/d
- effect on viability [1]: greater (but still modest) decreases in viability
- growth arrest [1]: more sustained growth arrest
- IC50 (CDK4/Cyclin D1): 4.45 nM
- IC50 (Colo205): 38.4 nM

SMILES: CN(C)C1CCN(c2ccc(Nc3ncc4c(n3)C3(C=CC(C)(C)CC3)c3cnccc3-4)cn2)CC1 (stereo not drawn) [Compound F, N-(6-(4-(dimethylamino)piperidin-1-yl)pyridin-3-yl)-4,4-dimethylspiro[cyclohex[2]ene-1,9′-pyrido[4′,3′:3,4]cyclopenta[1,2-d]pyrimidin]-2′-amine]
- Titer ([1]; 1.2 microM, D 1): 0.49 g/L
- VCD ([1]; 1.2 microM, D 1): 11.56 e6/mL
- Viability ([1]; 1.2 microM, D 1): 96.84%
- qP ([1]; 1.2 microM, D 1): 42.39 pg/c/d
- Titer ([1]; 1.2 microM, D 2): 0.73 g/L
- VCD ([1]; 1.2 microM, D 2): 10.80 e6/mL
- Viability ([1]; 1.2 microM, D 2): 90.23%
- qP ([1]; 1.2 microM, D 2): 67.31 pg/c/d
- Titer ([1]; 1.2 microM, D 3): 0.96 g/L
- VCD ([1]; 1.2 microM, D 3): 11.96 e6/mL
- Viability ([1]; 1.2 microM, D 3): 89.40%
- qP ([1]; 1.2 microM, D 3): 80.01 pg/c/d
- Titer ([1]; 1.2 microM, D 4): 1.13 g/L
- VCD ([1]; 1.2 microM, D 4): 14.70 e6/mL
- Viability ([1]; 1.2 microM, D 4): 88.76%
- qP ([1]; 1.2 microM, D 4): 77.09 pg/c/d
- Titer ([1]; 2.4 microM, D 1): 0.50 g/L
- VCD ([1]; 2.4 microM, D 1): 11.16 e6/mL
- Viability ([1]; 2.4 microM, D 1): 95.96%
- qP ([1]; 2.4 microM, D 1): 44.50 pg/c/d
- Titer ([1]; 2.4 microM, D 2): 0.75 g/L
- VCD ([1]; 2.4 microM, D 2): 10.01 e6/mL
- Viability ([1]; 2.4 microM, D 2): 89.97%
- qP ([1]; 2.4 microM, D 2): 75.27 pg/c/d
- Titer ([1]; 2.4 microM, D 3): 0.97 g/L
- VCD ([1]; 2.4 microM, D 3): 10.33 e6/mL
- Viability ([1]; 2.4 microM, D 3): 88.89%
- qP ([1]; 2.4 microM, D 3): 93.88 pg/c/d
- Titer ([1]; 2.4 microM, D 4): 1.18 g/L
- VCD ([1]; 2.4 microM, D 4): 12.84 e6/mL
- Viability ([1]; 2.4 microM, D 4): 86.16%
- qP ([1]; 2.4 microM, D 4): 91.87 pg/c/d
- effect on viability [1]: minimal effects on viability
- growth arrest [1]: reasonably sustained growth arrest
- IC50 (CDK4/Cyclin D1): 33.5 nM
- IC50 (Colo205): 34.7 nM
